Measurements reported in patent publication US20220105051A1, “COMPOUNDS FOR INCREASING MHC-I EXPRESSION AND MODULATING HISTONE DEACETYLASE ACTIVITY” (Cava Healthcare Inc., priority 2019, published 2022).
Entries after “also recorded” stand apart in the source; their conditions may differ.

Key:
A9 cells = assay: Proteome Profiler Mouse XL cytokine array on A9 cells; assay type: cell-based, murine; details: 0.014 mg/ml (0.064 umol) vs DMSO
Method: (§1) Methods primarily used: Fluorescence Activated Cell Sorting (FACS), western blot, RealTime-PCR (RT-PCR), Proteome Profiler Mouse Cytokine Array Kit (Panel A).
Upon addition of 0.014 mg/ml (0.064 umol) of Curcuphenol, there was a change in the cytokine production of A9 cells, relative to that of cells treated with only vehicle DMSO. This treatment was done in 2 mL of DMEM media, at an initial seeding density of 1×10^6 A9 cells, and treatment with Curcuphenol in DMSO vehicle or DMSO vehicle was done 24 hours after seeding A9 cells. A9 cells are murine metastatic epithelial carcinoma cells. Cytokine change was seen using the Proteome Profiler Mouse XL cytokine array (R&D Systems, ARY028).

[1] = test system: TAP, MHC class I, and HDACs 8 and 10; assay: mRNA expression in A9 cells (RT-PCR); assay type: cell-based, murine; details: 0.064 μmol
Source text: as §1

Maximum tolerated dose = assay type: in vivo; details: for MTD at 14 days: female, C57BL/6, mouse, in vivo, ip, limited by solubility in 1% DMSO, read-out: highest maximum tolerated dose; for signs of toxicity (clinical signs, necropsy): i.p. 1.0, 3.5 and 5.2 mg/kg, 14 days, C57BL/6 mice
Method: British Columbia Cancer Agency (BCCA) completed the maximum tolerated dose study for compound P02-113, whereas P03-97-1 was assessed in-house following the same protocol. […]. The compounds were injected intraperitoneally (i.p.) at concentrations of 1.0 mg/kg (n=3), 3.5 mg/kg (n=3), or 5.2 mg/kg (n=3). These doses were based on the maximum solubility of the compounds that was determined using the known solubility of curcuphenol. Mice were assessed for clinical signs of toxicity for 14 days following injection. After 14 days the mice were euthanized and examined by necropsy, P02-113 was performed at BCCA, and P03-97-1 was performed by Animal Care Services located at the Center for Comparative Medicine on UBC Point Grey campus, Vancouver BC.
In vivo efficacy studies. Maximum tolerated dose (MTD). The maximum tolerated dose for the selected compounds, P02-113 and P03-97-1, were assessed in vivo. C57BI/6 mice were injected intraperitoneally (i.p.) with the test compounds at 3 different concentrations: 1.0 mg/kg (n=3), 3.5 mg/kg (n=3) and 5.2 mg/kg (n=3). Mice were then assessed for 14 days for clinical signs of toxicity and at the end point a necropsy was performed. […]

CC(C)=CCC[C@H](C)c1ccc(C)cc1O [Curcuphenol, curcuphenol]
Adiponectin/Acrp30 production (A9 cells): Decrease
Amphiregulin production (A9 cells): Decrease
Angiopoietin-1 production (A9 cells): Decrease
Angiopoietin-2 production (A9 cells): Increase
Angiopoietin-like 3 production (A9 cells): Increase
CCL2/JE/MCP-1 production (A9 cells): Decrease
CCL5/RANTES production (A9 cells): Decrease
CCL6/C10 production (A9 cells): Decrease
CCL11/Eotaxin production (A9 cells): Decrease
CCL12/MCP-5 production (A9 cells): Increase
CCL17/TARC production (A9 cells): Decrease
CCL19/MIP-3beta production (A9 cells): Increase
CCL22/MDC production (A9 cells): Decrease
CD40/TNFRSF5 production (A9 cells): Increase
CD160 production (A9 cells): Decrease
CX3CL1/Fractalkine production (A9 cells): Increase
CXCL9/MIG production (A9 cells): Decrease
CXCL10/IP-10 production (A9 cells): Decrease
CXCL11/I-TAC production (A9 cells): Decrease
CXCL13/BLC/BCA-1 production (A9 cells): Increase
CXCL16 production (A9 cells): Increase
Chemerin production (A9 cells): Decrease
Coagulation Factor III/Tissue Factor production (A9 cells): Increase
Cystatin C production (A9 cells): Increase
DGF-BB production (A9 cells): Increase
E-Selectin/CD62-E production (A9 cells): Decrease
Endostatin production (A9 cells): Decrease
FGF-21 production (A9 cells): Increase
Flt-3 Ligand production (A9 cells): Decrease
G-CSF production (A9 cells): Increase
GDF-15 production (A9 cells): Increase
Gas 6 production (A9 cells): Increase
IFN-gamma production (A9 cells): Increase
IGFBP-2 production (A9 cells): Decrease
IGFBP-3 production (A9 cells): Decrease
IGFBP-6 production (A9 cells): Decrease
IL-1alpha/IL-1F1 production (A9 cells): Increase
IL-1beta/IL-1F2 production (A9 cells): Increase
IL-1ra/IL-1F3 production (A9 cells): Increase
IL-6 production (A9 cells): Decrease
IL-7 production (A9 cells): Decrease
IL-10 production (A9 cells): Decrease
IL-11 production (A9 cells): Decrease
IL-12 p40 production (A9 cells): Decrease
IL-13 production (A9 cells): Increase
IL-15 production (A9 cells): Increase
IL-28A/B production (A9 cells): Increase
IL-33 production (A9 cells): Increase
LIX production (A9 cells): Increase
Leptin production (A9 cells): No change
M-CSF production (A9 cells): Decrease
MMP-2 production (A9 cells): Decrease
MMP-3 production (A9 cells): Decrease
Myeloperoxidase production (A9 cells): Increase
Osteopontin (OPN) production (A9 cells): Increase
P-Selectin/CD62P production (A9 cells): Decrease
Pentraxin 2/SAP production (A9 cells): Decrease
Pentraxin 3/TSG-14 production (A9 cells): Increase
Periostin/OSF-2 production (A9 cells): No change
Pref-1/DLK-1/FA1 production (A9 cells): Decrease
Proliferin production (A9 cells): Increase
Proprotein Convertase 9/PCSK9 production (A9 cells): No change
Serpin E1/PAI-1 production (A9 cells): Increase
Serpin F1/PEDF production (A9 cells): Increase
TIM-1/KIM-1/HAVCR production (A9 cells): Increase
TNF-alpha production (A9 cells): Decrease
VCAM-1/CD106 production (A9 cells): No change
VEGF production (A9 cells): Increase
WISP-1/CCN4 production (A9 cells): Decrease
mRNA expression of HDAC 8 [1]: increased mRNA expression
mRNA expression of HDAC 10 [1]: increased mRNA expression
mRNA expression of MHC class I [1]: increased mRNA expression
mRNA expression of TAP [1]: increased mRNA expression

CC(C)=CCCCc1ccc(C)cc1O [P02-113]
MTD at 14 days (Maximum tolerated dose): 5.2 mg/kg
signs of toxicity (clinical signs, necropsy) (Maximum tolerated dose): no signs of toxicity or abnormalities; also recorded: no adverse drug effects

COc1ccc(C(C)CCC=C(C)C)c(O)c1 (centres unmarked) [P03-97-1]
MTD at 14 days (Maximum tolerated dose): 5.2 mg/kg
signs of toxicity (clinical signs, necropsy) (Maximum tolerated dose): no signs of toxicity or abnormalities; also recorded: no adverse drug effects
